Laboratory results reported in publication PMC2212779 (The Journal of Experimental Medicine, 2005).
Ends that are not written are not given here.

Target: H-2K^b (Mus musculus, UniProt P01901)
Assay: biochemical
Format: binding
Settings: not given

Sequence of H-2K^b (P01901 22-369): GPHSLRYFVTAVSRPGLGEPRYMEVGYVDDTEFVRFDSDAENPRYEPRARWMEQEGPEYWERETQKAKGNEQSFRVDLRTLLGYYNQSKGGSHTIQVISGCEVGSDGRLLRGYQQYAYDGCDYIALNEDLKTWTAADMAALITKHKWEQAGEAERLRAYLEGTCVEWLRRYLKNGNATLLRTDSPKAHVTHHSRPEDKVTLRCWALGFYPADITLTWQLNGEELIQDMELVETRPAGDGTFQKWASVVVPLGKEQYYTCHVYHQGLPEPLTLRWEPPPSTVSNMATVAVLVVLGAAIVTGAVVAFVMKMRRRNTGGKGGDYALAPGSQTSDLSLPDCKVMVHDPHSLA
Sequence of H-2K^b (P61769 21-119, further chain): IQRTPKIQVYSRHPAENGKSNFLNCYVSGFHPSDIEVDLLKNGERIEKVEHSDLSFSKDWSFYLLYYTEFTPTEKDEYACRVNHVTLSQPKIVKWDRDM

Sequence | IC50 [nM]
ISLKNYGI [ISLKNYGI] | 16
TSYKFESV [B8R20-27] | 0.19
LAVLFINSI [LAVLFINSI] | 28
KVEEYCTGL [KVEEYCTGL] | 129
WQTMYTNV [WQTMYTNV] | 6.6

Target: H-2D^b (Mus musculus, UniProt P01899)
Assay: not given
Settings: read-out: average IC50 of the radiolabeled standard peptide; cited from earlier work

Sequence of H-2D^b (P01899 25-362): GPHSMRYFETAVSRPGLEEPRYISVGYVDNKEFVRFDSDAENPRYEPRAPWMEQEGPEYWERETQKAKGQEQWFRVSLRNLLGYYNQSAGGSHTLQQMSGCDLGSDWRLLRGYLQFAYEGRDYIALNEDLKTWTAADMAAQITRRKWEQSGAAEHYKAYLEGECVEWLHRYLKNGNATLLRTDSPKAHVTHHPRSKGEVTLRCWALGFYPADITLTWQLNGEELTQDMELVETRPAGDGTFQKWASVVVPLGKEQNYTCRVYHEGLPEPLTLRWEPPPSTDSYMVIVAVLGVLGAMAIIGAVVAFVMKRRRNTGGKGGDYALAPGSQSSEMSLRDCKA
Sequence of H-2D^b (P61769 21-119, further chain): as the sequence (P61769 21-119, further chain) above

Sequence | IC50 [nM]
SGPSNTYPEI | 4.4
